Here are results for 6 compounds from patent US9765060B2 (Gilead Sciences, Inc., priority 2014, dated 2017).

In the first assay the target is PI3K isoform δ (Homo sapiens (Human), UniProt O00329). The experiment in a line: TR-FRET assay of enzymatic activity of class I PI3K isoforms. The following applies: read-out: IC50 (nM) for PI3K isoform δ (Table 2); TR-FRET; 2× Km ATP, 2 μM PIP2; incubated for 30 minutes at 25° C. A general note: In TR-FRET formats the signal depends on donor and acceptor labels being close together.
Chain of PI3K isoform δ (O00329 whole entry, canonical isoform): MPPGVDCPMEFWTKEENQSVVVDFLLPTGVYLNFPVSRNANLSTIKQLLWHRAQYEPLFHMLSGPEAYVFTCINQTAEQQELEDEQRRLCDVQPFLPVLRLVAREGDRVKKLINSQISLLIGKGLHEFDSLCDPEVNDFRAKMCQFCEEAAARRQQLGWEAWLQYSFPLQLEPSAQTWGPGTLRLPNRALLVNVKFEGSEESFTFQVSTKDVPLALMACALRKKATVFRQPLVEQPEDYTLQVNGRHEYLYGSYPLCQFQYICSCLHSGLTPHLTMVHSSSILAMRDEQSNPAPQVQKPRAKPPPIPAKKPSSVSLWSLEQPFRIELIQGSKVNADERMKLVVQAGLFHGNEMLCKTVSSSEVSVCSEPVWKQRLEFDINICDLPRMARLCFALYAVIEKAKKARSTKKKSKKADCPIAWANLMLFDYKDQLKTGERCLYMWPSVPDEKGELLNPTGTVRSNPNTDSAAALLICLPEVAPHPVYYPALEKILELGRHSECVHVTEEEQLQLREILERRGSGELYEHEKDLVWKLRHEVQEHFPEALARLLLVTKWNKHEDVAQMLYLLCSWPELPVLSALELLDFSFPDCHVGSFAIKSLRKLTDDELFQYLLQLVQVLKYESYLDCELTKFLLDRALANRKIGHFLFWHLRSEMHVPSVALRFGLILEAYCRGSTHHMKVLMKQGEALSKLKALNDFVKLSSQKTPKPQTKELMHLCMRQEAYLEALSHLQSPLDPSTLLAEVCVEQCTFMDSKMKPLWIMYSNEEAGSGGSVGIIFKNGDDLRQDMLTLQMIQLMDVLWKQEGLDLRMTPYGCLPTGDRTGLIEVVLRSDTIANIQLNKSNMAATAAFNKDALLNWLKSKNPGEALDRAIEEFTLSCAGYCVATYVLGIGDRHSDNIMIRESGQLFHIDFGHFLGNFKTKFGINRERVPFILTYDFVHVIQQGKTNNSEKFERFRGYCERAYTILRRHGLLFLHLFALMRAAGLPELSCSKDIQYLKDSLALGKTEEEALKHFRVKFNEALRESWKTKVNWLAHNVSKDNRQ
Chain of PI3K isoform δ (P27986 whole entry partner, canonical isoform): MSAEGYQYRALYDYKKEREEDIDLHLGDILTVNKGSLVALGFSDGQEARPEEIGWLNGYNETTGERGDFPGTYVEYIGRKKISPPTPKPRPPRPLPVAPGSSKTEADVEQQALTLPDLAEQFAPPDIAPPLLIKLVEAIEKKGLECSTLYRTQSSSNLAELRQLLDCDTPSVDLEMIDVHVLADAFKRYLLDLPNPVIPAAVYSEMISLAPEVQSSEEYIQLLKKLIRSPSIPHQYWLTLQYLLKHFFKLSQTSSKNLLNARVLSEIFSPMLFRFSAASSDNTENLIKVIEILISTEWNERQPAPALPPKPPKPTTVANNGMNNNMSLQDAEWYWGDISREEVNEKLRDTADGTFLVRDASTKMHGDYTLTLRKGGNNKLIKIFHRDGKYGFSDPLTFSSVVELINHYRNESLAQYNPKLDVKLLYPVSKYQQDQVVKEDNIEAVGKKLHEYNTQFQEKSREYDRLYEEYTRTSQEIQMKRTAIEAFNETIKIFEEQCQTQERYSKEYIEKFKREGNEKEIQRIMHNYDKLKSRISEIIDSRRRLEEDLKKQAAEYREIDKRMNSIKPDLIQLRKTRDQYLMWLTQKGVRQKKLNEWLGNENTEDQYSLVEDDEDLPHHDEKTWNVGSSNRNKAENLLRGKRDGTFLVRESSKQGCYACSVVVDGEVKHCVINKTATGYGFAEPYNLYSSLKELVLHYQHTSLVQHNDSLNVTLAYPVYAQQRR
Description: TR-FRET monitored the formation of 3,4,5-inositol triphosphate molecule that competed with fluorescently labeled PIP3 for binding to the GRP-1 pleckstrin homology domain protein. […] Class I PI3K isoforms were expressed and purified as heterodimeric recombinant proteins. All assay reagents and buffers for the TR-FRET assay were purchased from Millipore.
For orientation: IC50 means the point on the concentration scale where inhibition reaches its midpoint. With `C[C@H](Nc1ncnc(N)c1C#N)c1nc2cccc(Cl)c2c(=O)n1-c1ccccc1` [Compound Y, (S)-4-amino-6-((1-(5-chloro-4-oxo-3-phenyl-3,4-dihydroquinazolin-2-yl)ethyl)amino)pyrimidine-5-carbonitrile, reference compound], the IC50 came out at 0.4 nM.

The same assay, now with this note: read-out: IC50 (nM) for PI3K isoform δ (Table 3); TR-FRET; 2× Km ATP, 2 μM PIP2; incubated for 30 minutes at 25° C.
Turning to `N#Cc1c(N)nc(N)nc1N1C[C@H](NC(=O)C(F)F)C[C@H]1c1nc2cccc(F)c2c(=O)n1-c1cc(F)cc(F)c1` [Compound 111, N-((3R,5S)-1-(2,6-diamino-5-cyanopyrimidin-4-yl)-5-(3-(3,5-difluorophenyl)-5-fluoro-4-oxo-3,4-dihydroquinazolin-2-yl)pyrrolidin-3-yl)-2,2-difluoroacetamide], the IC50 turned out to be 9 nM.

Turning to `N#Cc1c(N)nc(N)nc1N1C[C@H](NC(=O)CC2CC2)C[C@H]1c1nc2cccc(Cl)c2c(=O)n1-c1ccccc1` [Compound 114, N-((3R,5S)-5-(5-chloro-4-oxo-3-phenyl-3,4-dihydroquinazolin-2-yl)-1-(2,6-diamino-5-cyanopyrimidin-4-yl)pyrrolidin-3-yl)-2,2-cyclopropylacetamide], the IC50 is 0.9 nM.

For `N#Cc1c(N)nc(N)nc1N1C[C@H](NC(=O)CN)C[C@H]1c1nc2cccc(Cl)c2c(=O)n1-c1ccccc1` [Compound 115, 2-amino-N-((3R,5S)-5-(5-chloro-4-oxo-3-phenyl-3,4-dihydroquinazolin-2-yl)-1-(2,6-diamino-5-cyanopyrimidin-4-yl)pyrrolidin-3-yl)acetamide], the IC50 is 64 nM.

Take `N#Cc1c(N)nc(N)nc1N1C[C@H](NC(=O)CN)C[C@H]1c1nc2cccc(Cl)c2c(=O)n1-c1cc(F)cc(F)c1` [Compound 116, 2-amino-N-((3R,5S)-5-(5-chloro-3-(3,5-difluorophenyl)-4-oxo-3,4-dihydroquinazolin-2-yl)-1-(2,6-diamino-5-cyanopyrimidin-4-yl)pyrrolidin-3-yl)acetamide]: the IC50 was found to be 7 nM.

In the case of “N-((3R,5S)-5-(5-chloro-3-(3-(difluorophenyl)-5-fluorophenyl)-4-oxo-3,4-dihydroquinazolin-2-yl)-1-(2,6-diamino-5-cyanopyrimidin-4-yl)pyrrolidin-3-yl)-2,2-difluoroacetamide [Compound 110]”, the IC50 came to 2 nM.
